In patent US5468615A, “Binding assay employing a synthetic gene for D4 dopamine receptors” (The Upjohn Company, priority 1993, dated 1995):

How the values were obtained:
[1] = tested on: D4 receptors; settings: CHO cells expressing D4 receptors
Protocol: AMP accumulation was measured in intact D4-19 cells plated at a density of 15,000 cells/well in a 24 well plate 48 hours prior to the experiment. The cells were incubated in serum free medium 1 hour prior to the experiment. Fresh medium (0.5 ml) containing 100 μM forskolin, 100 μM IBMX and varying concentrations of drugs were added to each well and cAMP was allowed to accumulate for 15 minutes at 30° C. The reactions were terminated by the removal of the medium and the addition of 100 μl cold 7.5% (TCA) trichloroacetic acid. The samples were diluted by the addition of 1.0 ml 50 mM sodium acetate, pH 6.2 and aliquots were assayed by RIA using Biomedical Technologies Incorporated cAMP RIA kit.
cAMP accumulation was measured in forskolin stimulated cells as described in methods. Dopamine (10 μM) was added to 3 wells (DA). […] The bars are the averages of the three wells expressed as the percentage of the forskolin response.

[2] = tested on: schizophrenics; settings: unlike other antipsychotic drugs; Casey (1989); cited from earlier work
[3] = target: T1, synthetic D4 receptor (Homo sapiens, UniProt P21917, DEL265-296); test: (3H)spiperone radioligand binding, membranes of LacI (CHO) cells expressing synthetic D4 receptor (line D4-19); set-up: expressed in transfected cells; settings: Scatchard transformation of saturation binding; line D4-19, IPTG induced
T1 sequence (P21917 with tags, fused parts or gaps DEL271-302): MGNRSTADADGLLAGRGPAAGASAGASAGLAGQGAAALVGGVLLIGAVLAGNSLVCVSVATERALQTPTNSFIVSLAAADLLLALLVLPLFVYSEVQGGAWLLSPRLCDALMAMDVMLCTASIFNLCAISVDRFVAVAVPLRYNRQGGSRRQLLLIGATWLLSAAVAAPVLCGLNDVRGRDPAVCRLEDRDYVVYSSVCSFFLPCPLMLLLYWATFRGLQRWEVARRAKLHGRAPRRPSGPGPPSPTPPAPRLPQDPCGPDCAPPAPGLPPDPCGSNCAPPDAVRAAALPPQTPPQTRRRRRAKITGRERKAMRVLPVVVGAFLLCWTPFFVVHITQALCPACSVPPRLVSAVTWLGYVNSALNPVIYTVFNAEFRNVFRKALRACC
Protocol: (§1) LacI synthetic D4 transfected cells were grown in the presence of 100 μM IPTG for 48 hours prior to harvest. Cells grown in 100 mm dishes were rinsed once with 5 mls of ice cold Ca^2+ /Mg^2+ free PBS and scraped into 5 mls of the same buffer. Cells were pelleted (500×g, 5 minutes), and resuspended in 25 mM Tris, 5 mM EDTA, 5 mM EGTA, pH 7.5 (TEE), and frozen in liquid nitrogen. After thawing, the cells were homogenized and centrifuged at 1,000×g to remove nuclei and unbroken cells. The supernatant was centrifuged at 20,000×g, the membrane pellet was washed once with TEE, resuspended in binding buffer, and frozen in liquid nitrogen. Membrane aliquots were stored at -70° C.
(§2) Incubations were for 1 hour at 30° C. Assays were stopped by filtration through Whatman GF/B filters followed by 2×10 ml washes with ice cold 50 mM Tris, pH 7.5. The filters were counted by liquid scintillation spectroscopy.

[4] = target: T1, synthetic D4 receptor; test: (3H)spiperone radioligand binding, membranes of HEK293 cells expressing synthetic D4 receptor (line D4-24); set-up: expressed in transfected cells; host or cells: HEK293 cells (EBV-based vector pCEP4), line D4-24
Protocol: Each point is the mean of duplicates with non-specific binding subtracted.
as §1, §2

CN1CCN(C2=Nc3cc(Cl)ccc3Nc3ccccc32)CC1 [clozapine]
antagonism of dopamine inhibition of cAMP accumulation ([1]; 10 μM clozapine with 10 μM dopamine (FIG. 6)): Antagonism
tardive dyskinesia [2]: does not cause tardive dyskinesia

NCCc1ccc(O)c(O)c1 [dopamine]
inhibition of cAMP accumulation ([1]; 10 μM dopamine, forskolin stimulated (FIG. 6)): Inhibition of cAMP accumulation

O=C(CCCN1CCC2(CC1)C(=O)NCN2c1ccccc1)c1ccc(F)cc1 [(^3 H)-spiperone]
Bmax [3]: 260 fmol/mg protein
receptor expression over passages (3H-spiperone binding) ([4]; D4-24 cells, 540 pM 3H-spiperone, up to at least 12 passages over 10 weeks (FIG. 5)): remains constant
Bmax ([4]; Scatchard analysis of saturation binding, line D4-24 (FIG. 4)): 736 fmol/mg protein
